This is an account of results in ChEMBL document CHEMBL5365432, “Anticancer Activities of DNA-Alkylating Pyrrole-Imidazole Polyamide Analogs Targeting RUNX Transcription Factors against p53-Mutated Pancreatic Cancer PANC-1 Cells” (J Med Chem, 2023).

Data set [1] deals with DNA. The experiment in a line: Binding affinity to DNA (unknown origin) assessed as formation of DNA alkylation product at 150 uM incubated for 18 hrs measured after 20 mins by HPLC/MALDI-TOF MS analysis. In kind it is nucleic-acid assay. As to conditions: time 18.33 hrs.
Data set [2] concerns DNA. The experiment in a line: Binding affinity to DNA (unknown origin) assessed as DNA alkylation at RUNX-binding site at 150 uM incubated for 18 hrs by HPLC analysis. The format is nucleic-acid assay.
The subject of data set [3] is PANC-1. Kind of data set: Anti-cancer activity against human PANC-1 cells xenografted in CB17.Cg-PrkdcscidLystbg-j/CrlCrlj mouse assessed as reduction in tumor volume at 5 mg/kg, iv administered twice a week for 3 weeks. The format is functional, organism-based.
The nature of data set [4]: Cytotoxicity against human hTERT-HPNE cells assessed as cell viability at 3 uM incubated for 3 days by colorimetric assay relative to control. The format is toxicity, cell-based. The note with it: time 3 day, read-out: Activity.
For data set [5], the system named is PANC-1. Kind of data set: Induction of apoptosis in human PANC-1 cells assessed as suppression of BCL11A mRNA level at 3 uM incubated for 48 hrs by RT-qPCR analysis. In kind it is functional, cell-based.
Data set [6] concerns PANC-1. The experiment in a line: Induction of apoptosis in human PANC-1 cells assessed as increase in phosphorylated p53 protein level at S392 residue at 3 uM incubated for 72 hrs by proteomic profiling array. In kind it is functional, cell-based.
Data set [7] relates to PANC-1. The experiment in a line: Induction of apoptosis in human PANC-1 cells assessed as viable cells at 3 uM incubated for 72 hrs by Annexin V-FITC/PI staining based flow cytometry (reference value: 94.3 %). The note with it: read-out: Activity. The format is functional.
For data set [8], the system named is PANC-1. The experiment in a line: Induction of apoptosis in human PANC-1 cells assessed as upregulation of TAp73 mRNA level at 3 uM incubated for 48 hrs by RT-qPCR analysis. The format is functional, cell-based. (Quantitative PCR measures a nucleic acid by following its amplification.)
The subject of data set [9] is PANC-1. Kind of data set: Induction of apoptosis in human PANC-1 cells assessed as upregulation of TAp63 mRNA level at 3 uM incubated for 48 hrs by RT-qPCR analysis. The format is functional, cell-based.
Data set [10] has as its system PANC-1. The experiment in a line: Induction of apoptosis in human PANC-1 cells assessed as late apoptotic cells at 3 uM incubated for 72 hrs by Annexin V-FITC/PI staining based flow cytometry (reference value: 2.9 %). In kind it is functional. On the technique in general: A flow cytometer gives signals particle by particle.
Data set [11] relates to PANC-1. The experiment in a line: Induction of apoptosis in human PANC-1 cells assessed as increase in phosphorylated p53 protein level at S46 residue at 3 uM incubated for 72 hrs by proteomic profiling array. The format is functional, cell-based.
The test system of data set [12] is PANC-1. Kind of data set: Induction of apoptosis in human PANC-1 cells assessed as necrotic cells at 3 uM incubated for 72 hrs by Annexin V-FITC/PI staining based flow cytometry (reference value: 1.2 %). The format is functional.
For data set [13], the system named is PANC-1. The experiment in a line: Induction of apoptosis in human PANC-1 cells assessed as increase in phosphorylated p53 protein level at S15 residue at 3 uM incubated for 72 hrs by proteomic profiling array. In kind it is functional, cell-based.
Data set [14] in a line: Toxicity in CB17.Cg-PrkdcscidLystbg-j/CrlCrlj mouse xenografted with human PANC-1 cells assessed as body weight loss at 5 mg/kg, iv administered twice a week for 3 weeks. The format is organism-based. As to conditions: in vivo, 504 h. Background: In xenograft studies the graft and the host belong to different species.
Data set [15] relates to PANC-1. Kind of data set: Induction of apoptosis in human PANC-1 cells assessed as early apoptotic cells at 3 uM incubated for 72 hrs by Annexin V-FITC/PI staining based flow cytometry (reference value: 1.5 %). The format is functional.
The subject of data set [16] is PANC-1. Kind of data set: Anti-cancer activity against human PANC-1 cells xenografted in CB17.Cg-PrkdcscidLystbg-j/CrlCrlj mouse assessed as fold change in tumor volume at 1 mg/kg, iv administered twice a week for 3 weeks relative to gemcitabine. In kind it is functional.
Data set [17] concerns PANC-1. Kind of data set: Cytotoxicity against human PANC-1 cells assessed as cell viability at 3 uM incubated for 3 days by colorimetric assay relative to control. The format is functional. The note with it: PANC-1, 72 h, time 3 day, read-out: Activity.

Activity calls are given as the source filed them. The calls are words filed in the database; no cut-off is given here.

`CN(C)CCCNC(=O)c1nc(NC(=O)c2cc(NC(=O)c3nc(NC(=O)c4nc(NC(=O)CCCNC(=O)c5cc(NC(=O)c6cc(NC(=O)c7cc(NC(=O)c8cc(NC(=O)CCNC(=O)CCCc9ccc(N(CCCl)CCCl)cc9)cn8C)cn7C)cn6C)cn5C)cn4C)cn3C)cn2C)cn1C`: the outcome in the data set with DNA [1] was Active. The outcome in the data set with DNA [2] was inactive.
For `CN(C)CCCNC(=O)c1cc(NC(=O)c2cc(NC(=O)c3cc(NC(=O)c4cc(NC(=O)CCCNC(=O)c5nc(NC(=O)c6cc(NC(=O)c7nc(NC(=O)c8nc(NC(=O)CCNC(=O)CCCc9ccc(N(CCCl)CCCl)cc9)cn8C)cn7C)cn6C)cn5C)cn4C)cn3C)cn2C)cn1C`, the result in the data set with PANC-1 [3], with DNA [1], in the data set with PANC-1 [5], in the data set with PANC-1 [6], with PANC-1 [8] and in the data set on PANC-1 [11] was Active. In addition, the result in the data set with PANC-1 [13] and with DNA [2] was Active. Besides, in data set [4], the viability at 72 h, 3 µM is 73.8%. The viability at 3 µM with PANC-1 [7] was 68.7%; in the data set on PANC-1 [17], 67.7%. Also, in the data set on PANC-1 [9], the outcome was inactive. The Activity is 14% in the data set with PANC-1 [10], 2.4% in the data set with PANC-1 [12], “Non-Toxic” in [14] and 15% in the data set on PANC-1 [15]. For the same molecule, the “fold change (FC)” value with PANC-1 [16] came to 50.
With `CN(C)CCCNC(=O)c1nc(NC(=O)c2nc(NC(=O)c3cc(NC(=O)c4nc(NC(=O)CCCNC(=O)c5cc(NC(=O)c6cc(NC(=O)c7cc(NC(=O)c8cc(NC(=O)CCNC(=O)CCCc9ccc(N(CCCl)CCCl)cc9)cn8C)cn7C)cn6C)cn5C)cn4C)cn3C)cn2C)cn1C`, the result in the data set with PANC-1 [3], in the data set on DNA [1], in the data set with PANC-1 [5], in the data set with PANC-1 [6], with PANC-1 [8] and with PANC-1 [9] was Active. Moreover, the result in the data set on PANC-1 [11], in the data set with PANC-1 [13] and in the data set on DNA [2] was Active. Besides, in data set [4], the viability at 72 h, 3 µM turned out to be 82%. Further, the viability at 3 µM in the data set with PANC-1 [7] was determined as 78.5%; in the data set with PANC-1 [17] it was 85%. In addition, the Activity in the data set with PANC-1 [10] is recorded as 9.1%; in the data set with PANC-1 [12], 1.6%; in data set [14] it was “Non-Toxic”; in the data set on PANC-1 [15] it was 10.8%. Besides, in the data set on PANC-1 [16], the “fold change (FC)” value is on record as 50.
As to `CN(C)CCCNC(=O)c1cc(NC(=O)c2cc(NC(=O)c3cc(NC(=O)c4cc(NC(=O)CCCNC(=O)c5nc(NC(=O)c6nc(NC(=O)c7cc(NC(=O)c8nc(NC(=O)CCNC(=O)CCCc9ccc(N(CCCl)CCCl)cc9)cn8C)cn7C)cn6C)cn5C)cn4C)cn3C)cn2C)cn1C`, the result in the data set on PANC-1 [3], in the data set with DNA [1], with PANC-1 [5], with PANC-1 [6], in the data set with PANC-1 [8] and in the data set on PANC-1 [11] was Active. Besides, the outcome in the data set with PANC-1 [13] was Active. The viability at 72 h, 3 µM in [4] was found to be 79.5%. In addition, the figures for the viability at 3 µM in the data set with PANC-1 [7] and with PANC-1 [17] were 73.1% and 74.7%, respectively. In addition, the result in the data set on PANC-1 [9] and with DNA [2] was inactive. Further, the Activity in the data set on PANC-1 [10] was 12.4%; with PANC-1 [12], 1.9%; in data set [14] it was “Non-Toxic”; in the data set on PANC-1 [15], 12.5%.
